From patent US20140336616A1, “DELIVERY DEVICE” (INTERNATIONAL SCIENTIFIC PTY LTD, priority 2012, published 2014)

System: excised human skin
Assay: Sodium fluorescein dye penetration into excised human skin in Franz cells, with LSCM imaging and image analysis
Assay type: in vitro ADME
Conditions: 300 μL NaF 1 mg/mL in saline, 15 minutes, 34-35° C.; images from 73 μm deep
Text: Microneedle Treatment: A piece of gauze was folded in half 4 times and then the skin sample placed on top. In-situ skin tension was approximately simulated by stretching the skin over the gauze and pinning in place. A pre-prepared microneedle impact applicator was then used to apply the microneedle to the skin at speed (approximately 3 m·s−1). This applicator consisted of a housing, a spring-loaded plunger and the banks of laser cut microneedles (two 3-needle banks gave a total of 6 microneedles). The banks were mounted into the plunger which was then drawn back, loading the spring, and held in place using a pin. Upon removal of the pin, the plunger accelerated towards the skin, driving the microneedles through the stratum corneum and into the viable epidermis and dermis.
Dye incubation in Franz Cells: A Franz cell was prepared by applying vacuum grease to the sealing surfaces of the receptor and donor. […]
Laser scanning confocal microscopy (LSCM): To prepare the samples for LSCM, a cut was made around the imprint made by the Franz cell. […] The LSCM machine was then switched to the fluorescent mode with 488 nm excitation and 550±88 nm emission band was recorded. […]
Image analysis: The image data names were encoded to blind the image analysis researcher. […] Image J (NIH, Bethesda, Md.) was then used to quantify fluorescence intensity and dye positive areas. […]

O=C1OC2(c3ccc(O)cc3Oc3cc(O)ccc32)c2ccccc21 [NaF, Sodium Fluorescein]
NaF dye penetration / fluorescence pattern (LSCM, visual): no penetration of the dye beyond the stratum corneum
